Source: ChEMBL document CHEMBL1201862, “PubChem BioAssay data set” (2004)
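Values below derive from 48-hour exposures of cells grown in 96-well plates, with endpoints linearly interpolated between the two concentrations bracketing the appropriate inhibition level. At the GI50, growth is halved.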 Calls of active or inactive are those of the source. Cut-off read from the data, not from the text of the source: active = GI50 up to about 1.1 µM and inactive = higher.

Columns and labels:
Assay in all cases: NCI tumour cell line growth inhibition, 48 h
[1] = test system: 786-0
[2] = test system: A498
[3] = test system: A549
[4] = test system: ACHN
[5] = test system: BT-549
[6] = test system: CAKI-1
[7] = test system: CCRF-CEM
[8] = test system: COLO 205
[9] = test system: DU-145
[10] = test system: EKVX
[11] = test system: HCC 2998
[12] = test system: HCT-116
[13] = test system: HCT-15
[14] = test system: HL-60
[15] = test system: HOP-62
[16] = test system: HOP-92
[17] = test system: HT-29
[18] = test system: Hs-578T
[19] = test system: IGROV-1
[20] = test system: K562
[21] = test system: KM12
[22] = test system: LOX IMVI
[23] = test system: M14
[24] = test system: MCF7
[25] = test system: MDA-MB-231
[26] = test system: MDA-MB-435
[27] = test system: MDA-N
[28] = test system: MOLT-4
[29] = test system: Malme-3M
[30] = test system: NCI-H226
[31] = test system: NCI-H23
[32] = test system: NCI-H460
[33] = test system: NCI-H522
[34] = test system: NCI/ADR-RES
[35] = test system: OVCAR-3
[36] = test system: OVCAR-4
[37] = test system: OVCAR-5
[38] = test system: OVCAR-8
[39] = test system: PC-3
[40] = test system: RPMI-8226
[41] = test system: RXF 393
[42] = test system: SF-268
[43] = test system: SF-295
[44] = test system: SF-539
[45] = test system: SK-MEL-28
[46] = test system: SK-MEL-2
[47] = test system: SK-MEL-5
[48] = test system: SK-OV-3
[49] = test system: SN12C
[50] = test system: SNB-19
[51] = test system: SNB-75
[52] = test system: SR
[53] = test system: SW-620
[54] = test system: T47D
[55] = test system: TK-10
[56] = test system: U-251
[57] = test system: UACC-257
[58] = test system: UACC-62
[59] = test system: UO-31

## C/C(=C\c1csc(C)n1)[C@@H]1C[C@@H]2O[C@]2(C)CCC[C@H](C)[C@H](O)[C@@H](C)C(=O)C(C)(C)[C@@H](O)CC(=O)O1 [PATUPILONE]
[1]
  GI50: < 0.1 nM (active)
[2]
  GI50: < 0.1 nM (active)
[3]
  GI50: < 0.1 nM (active)
[4]
  GI50: < 0.1 nM (active)
[5]
  GI50: < 0.1 nM (active)
[6]
  GI50: < 0.1 nM (active)
[7]
  GI50: < 0.1 nM (active)
[8]
  GI50: < 0.1 nM (active)
[9]
  GI50: < 0.1 nM (active)
[10]
  GI50: < 0.1 nM (active)
[11]
  GI50: < 0.1 nM (active)
[12]
  GI50: < 0.1 nM (active)
[13]
  GI50: < 0.1 nM
[14]
  GI50: < 0.1 nM (active)
[15]
  GI50: < 0.1 nM (active)
[16]
  GI50: < 0.1 nM (active)
[17]
  GI50: < 0.1 nM (active)
[18]
  GI50: < 0.1 nM (active)
[19]
  GI50: < 0.1 nM (active)
[20]
  GI50: < 0.1 nM (active)
[21]
  GI50: < 0.1 nM (active)
[22]
  GI50: < 0.1 nM (active)
[23]
  GI50: < 0.1 nM (active)
[24]
  GI50: < 0.1 nM (active)
[25]
  GI50: < 0.1 nM (active)
[26]
  GI50: < 0.1 nM (active)
[27]
  GI50: < 0.1 nM (active)
[28]
  GI50: < 0.1 nM (active)
[29]
  GI50: 10 nM (active)
[30]
  GI50: < 0.1 nM (active)
[31]
  GI50: < 0.1 nM (active)
[32]
  GI50: < 0.1 nM (active)
[33]
  GI50: < 0.1 nM (active)
[34]
  GI50: < 0.1 nM (active)
[35]
  GI50: < 0.1 nM (active)
[36]
  GI50: 0.458 nM (active)
[37]
  GI50: < 0.1 nM (active)
[38]
  GI50: < 0.1 nM (active)
[39]
  GI50: < 0.1 nM (active)
[40]
  GI50: < 0.1 nM (active)
[41]
  GI50: < 0.1 nM (active)
[42]
  GI50: < 0.1 nM (active)
[43]
  GI50: < 0.1 nM (active)
[44]
  GI50: < 0.1 nM (active)
[45]
  GI50: < 0.1 nM (active)
[46]
  GI50: < 0.1 nM (active)
[47]
  GI50: < 0.1 nM (active)
[48]
  GI50: < 0.1 nM (active)
[49]
  GI50: < 0.1 nM (active)
[50]
  GI50: < 0.1 nM (active)
[51]
  GI50: < 0.1 nM (active)
[52]
  GI50: < 0.1 nM (active)
[53]
  GI50: < 0.1 nM (active)
[54]
  GI50: < 0.1 nM (active)
[55]
  GI50: < 0.1 nM (active)
[56]
  GI50: < 0.1 nM (active)
[57]
  GI50: < 0.1 nM (active)
[58]
  GI50: < 0.1 nM (active)
[59]
  GI50: < 0.1 nM (active)

## O=C1C[C@H](Sc2ccccc2)C2(OCCO2)[C@@H](Sc2ccccc2)C1
[1]
  GI50: 2820 nM (inactive)
[2]
  GI50: 15100 nM (inactive)
[3]
  GI50: 1870 nM (inactive)
[4]
  GI50: 1770 nM (inactive)
[5]
  GI50: 1970 nM (inactive)
[6]
  GI50: 3100 nM (inactive)
[7]
  GI50: 282 nM (active)
[8]
  GI50: 4280 nM (inactive)
[9]
  GI50: 3190 nM (inactive)
[10]
  GI50: 4520 nM (inactive)
[11]
  GI50: 2580 nM (inactive)
[12]
  GI50: 1600 nM (inactive)
[13]
  GI50: 1680 nM
[14]
  GI50: 272 nM (active)
[15]
  GI50: 3270 nM (inactive)
[16]
  GI50: 1900 nM (inactive)
[17]
  GI50: 1640 nM (inactive)
[18]
  GI50: 1770 nM (inactive)
[19]
  GI50: 1500 nM (inactive)
[20]
  GI50: 351 nM (active)
[21]
  GI50: 1790 nM (inactive)
[22]
  GI50: 700 nM (active)
[23]
  GI50: 1780 nM (inactive)
[24]
  GI50: 1170 nM (inactive)
[25]
  GI50: 1640 nM (inactive)
[26]
  GI50: 2250 nM (inactive)
[27]
  GI50: 2200 nM (inactive)
[28]
  GI50: 260 nM (active)
[29]
  GI50: 1810 nM (inactive)
[30]
  GI50: 2310 nM (inactive)
[31]
  GI50: 2090 nM (inactive)
[32]
  GI50: 5190 nM (inactive)
[33]
  GI50: 316 nM (active)
[34]
  GI50: 1880 nM (inactive)
[35]
  GI50: 2160 nM (inactive)
[36]
  GI50: 5070 nM (inactive)
[37]
  GI50: 3350 nM (inactive)
[38]
  GI50: 1730 nM (inactive)
[39]
  GI50: 1930 nM (inactive)
[40]
  GI50: 743 nM (active)
[41]
  GI50: 1000 nM (active)
[42]
  GI50: 1870 nM (inactive)
[43]
  GI50: 4330 nM (inactive)
[44]
  GI50: 998 nM (active)
[45]
  GI50: 2380 nM (inactive)
[46]
  GI50: 10200 nM (inactive)
[47]
  GI50: 1640 nM (inactive)
[48]
  GI50: 11500 nM (inactive)
[49]
  GI50: 2700 nM (inactive)
[50]
  GI50: 11000 nM (inactive)
[51]
  GI50: 11900 nM (inactive)
[52]
  GI50: 322 nM (active)
[53]
  GI50: 1240 nM (inactive)
[54]
  GI50: 5130 nM (inactive)
[55]
  GI50: 1950 nM (inactive)
[56]
  GI50: 1780 nM (inactive)
[57]
  GI50: 1800 nM (inactive)
[58]
  GI50: 2010 nM (inactive)
[59]
  GI50: 1230 nM (inactive)

## CC(=O)Nc1ccc2c3c(cc(O)c2c1)N(C(=O)CCCCC(=O)Nc1ccc2c4c(cc(O)c2c1)N(C(=O)OC(C)(C)C)CC4CCl)CC3CCl (configuration not stated)
[1]
  GI50: 2760 nM (inactive)
[2]
  GI50: 1940 nM (inactive)
[3]
  GI50: 7620 nM (inactive)
[4]
  GI50: 3200 nM (inactive)
[5]
  GI50: 1770 nM (inactive)
[6]
  GI50: 17400 nM (inactive)
[7]
  GI50: 193 nM (active)
[8]
  GI50: 1820 nM (inactive)
[9]
  GI50: 826 nM (active)
[10]
  GI50: 12800 nM (inactive)
[11]
  GI50: 1660 nM (inactive)
[12]
  GI50: 2220 nM (inactive)
[13]
  GI50: 16700 nM
[14]
  GI50: 420 nM (active)
[15]
  GI50: 3050 nM (inactive)
[16]
  GI50: 2700 nM (inactive)
[17]
  GI50: 2820 nM (inactive)
[18]
  GI50: 3550 nM (inactive)
[19]
  GI50: 1920 nM (inactive)
[20]
  GI50: 2620 nM (inactive)
[21]
  GI50: 2790 nM (inactive)
[22]
  GI50: 2190 nM (inactive)
[23]
  GI50: 3270 nM (inactive)
[24]
  GI50: 373 nM (active)
[25]
  GI50: 3800 nM (inactive)
[26]
  GI50: 1780 nM (inactive)
[27]
  GI50: 1770 nM (inactive)
[28]
  GI50: 302 nM (active)
[29]
  GI50: 1390 nM (inactive)
[30]
  GI50: 2130 nM (inactive)
[31]
  GI50: 1050 nM (active)
[32]
  GI50: 1830 nM (inactive)
[33]
  GI50: 740 nM (active)
[34]
  GI50: 21700 nM (inactive)
[35]
  GI50: 2260 nM (inactive)
[36]
  GI50: 2520 nM (inactive)
[37]
  GI50: 3290 nM (inactive)
[38]
  GI50: 3080 nM (inactive)
[39]
  GI50: 3250 nM (inactive)
[40]
  GI50: 3130 nM (inactive)
[41]
  GI50: 1530 nM (inactive)
[42]
  GI50: 804 nM (active)
[43]
  GI50: 4660 nM (inactive)
[44]
  GI50: 2250 nM (inactive)
[45]
  GI50: 3300 nM (inactive)
[46]
  GI50: 1750 nM (inactive)
[47]
  GI50: 1540 nM (inactive)
[48]
  GI50: 4400 nM (inactive)
[49]
  GI50: 2380 nM (inactive)
[50]
  GI50: 2090 nM (inactive)
[51]
  GI50: 1820 nM (inactive)
[52]
  GI50: 137 nM (active)
[53]
  GI50: 2820 nM (inactive)
[54]
  GI50: 820 nM (active)
[55]
  GI50: 10400 nM (inactive)
[56]
  GI50: 1530 nM (inactive)
[57]
  GI50: 2260 nM (inactive)
[58]
  GI50: 1540 nM (inactive)
[59]
  GI50: 24300 nM (inactive)
